These results are taken from PubChem BioAssay (NCI).

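Following 48 hours of exposure in 96-well plates, responses at five concentrations were used to interpolate endpoints linearly. Here, GI50 denotes the concentration required for 50% inhibition of growth. TGI denotes the concentration required for complete inhibition of growth.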 Where only a bound is given, the exact number is not on record here.

Assay in all cases: NCI anticancer screen, dose series, 48 h
The subject of assay [1] is SF-268 CNS.
For assay [2], the system named is A498 renal.
In assay [3] the test system is UACC-257 melanoma.
The test system of assay [4] is SN12C renal.
Assay [5] has as its system OVCAR-4 ovarian.
Assay [6] deals with T-47D breast.
In assay [7] the test system is MDA-MB-231 breast.
Assay [8] concerns EKVX NSCLC.
Assay [9] has as its system SK-OV-3 ovarian.
For assay [10], the system named is CCRF-CEM leukemia.

Turning to `Nc1nc(-c2ccccc2)c(CC(=O)O)s1`, the TGI in assay [1], in assay [2], in [3], in [4], in [5] and in assay [6] was over 100 µM each time. Moreover, the TGI in assay [7], in assay [8] and in assay [9] was over 100 µM in each case.
On to `OCc1ccc(-c2ccc(-c3ccc(CO)o3)o2)o1`, for which the GI50 is over 100 µM in assay [10]; over 61.7 µM in [1]; 0.18 µM in [2]; 2.85 µM in assay [3]; over 100 µM in assay [4]; over 41.3 µM in [5]. The figures for the GI50 in assay [6], in assay [7] and in assay [9] were 22.7 µM, 33.1 µM and over 83.3 µM, respectively. Also, the TGI in assay [10] was over 100 µM; in assay [1] it was over 100 µM; in [2], 0.39 µM; in assay [3], 11.9 µM; in assay [4], over 100 µM; in assay [5] it was over 100 µM. For the same compound, the TGI in assay [6], in assay [7] and in assay [9] was over 100 µM each time.
Consider `Cc1ccc(C(=O)Nc2ccc(Oc3cc4cnn(C)c4cc3-c3cn[nH]c3)c(F)c2)c(=O)n1-c1ccc(F)cc1`, for which the GI50 was over 100 µM in assay [10]; 7.21 µM in assay [1]; 0.404 µM in assay [2]; 6.8 µM in assay [3]; 3.08 µM in assay [4]; over 100 µM in assay [5]. For the same compound, the GI50 is 7.28 µM in assay [6], 10.2 µM in [7] and over 100 µM in [9]. The TGI in assay [10], in assay [1], in assay [2], in assay [3], in assay [4] and in [5] was over 100 µM in each case. The figures for the TGI in assay [6], in assay [7] and in assay [9] were over 78.8 µM, over 78.1 µM and over 100 µM, respectively.
As for `COC(=O)c1ccc(NC(N)=NCCC(C)(C)c2ccc(C(F)(F)F)cc2)nc1`, the GI50 in assay [10] is 3.01 µM; in [1], 6.23 µM; in assay [2] it was 2.64 µM; in [3], 2.03 µM; in assay [4], 1.7 µM; in [5], 1.71 µM. In addition, the GI50 in assay [6] was 1.62 µM; in assay [7], 1.76 µM; in [9] it was 6.63 µM. Also, the TGI amounted to 11 µM in [10]; 24.8 µM in assay [1]; 14.7 µM in assay [2]; 4.34 µM in assay [3]; 3.25 µM in assay [4]; 9.18 µM in assay [5]. Also, the values for the TGI in assay [6], in [7] and in [9] were 4.71 µM, 3.34 µM and 19.2 µM, respectively.
Turning to `CCOC(=O)c1cn(C)c2c(OC)c3ccccc3c(OC)c2c1=O`, the GI50 in assay [10] was 34.1 µM; in [1] it was 20.1 µM; in assay [3] it was 16.6 µM; in assay [4] it was 28.1 µM; in assay [5], 42.1 µM; in assay [6], 12.4 µM. Also, the GI50 in [7] was 32.6 µM; in [9], 77.1 µM. Moreover, the TGI is over 100 µM in assay [10]; 74.9 µM in [1]; 40.6 µM in assay [3]; 86.9 µM in assay [4]; over 100 µM in [5]; 42.9 µM in [6]. For the same compound, the TGI in assay [7] and in [9] was over 100 µM each time.
Consider `O=C(O)c1ccccc1NCn1nc(-c2ccccc2O)oc1=S`, for which the GI50 is 10.6 µM in [10]; 80.9 µM in assay [1]; over 100 µM in assay [3]; 56.5 µM in [4]; 68.7 µM in [6]; 16.8 µM in [7]. Moreover, the GI50 in [8] is over 100 µM. In addition, the TGI was 36.4 µM in [10]; over 100 µM in [1]; over 100 µM in assay [3]; over 100 µM in [4]; over 100 µM in assay [6]; 47.8 µM in [7]. In [8], this compound yielded a TGI of over 100 µM.
Consider `COc1ccc(-c2cnc(-c3ccncc3-c3cccc(OC)c3)o2)cc1`, for which the GI50 is 0.0389 µM in assay [10]; 0.0783 µM in assay [1]; 0.403 µM in assay [3]; 0.0798 µM in [4]; 0.677 µM in assay [5]; 2.58 µM in assay [6]. Further, the GI50 in assay [7] is 0.0591 µM; in assay [8], 1.04 µM; in assay [9], 0.0424 µM. For the same compound, the TGI in [10] stood at 16 µM; in [1], 16.9 µM; in assay [3], 15.8 µM; in assay [4], 16 µM; in [5], 29.2 µM; in assay [6], 35.1 µM. Moreover, the TGI in assay [7] came out at 19.3 µM; in assay [8], 25.1 µM; in [9], 17.1 µM.
`CN(C)C1C(=O)C(C(N)=O)=C(O)C2(O)C(=O)C3=C(O)c4c(O)cccc4C(C)(O)C3CC12.[Cl][Sb]([Cl])[Cl]` (centres undefined): the GI50 is 2.39 µM in assay [10]; 2.96 µM in assay [2]; 3.12 µM in [3]; 3.91 µM in [4]; 4.45 µM in assay [5]; 3.81 µM in [6]. Besides, the figures for the GI50 in [7], in assay [8] and in assay [9] were 4.3 µM, 2.96 µM and 3.79 µM, respectively. The TGI in [10] came to 11.2 µM; in assay [2] it was 11.4 µM; in [3], 11.8 µM; in assay [4], 14.9 µM; in assay [5] it was 19 µM; in [6], 13.2 µM. Further, the values for the TGI in [7], in assay [8] and in assay [9] were 15.3 µM, 8.01 µM and 14 µM, respectively.
